Assay [1] relates to adult mouse hippocampal cells. The experiment in a line: primary neurosphere culture, hippocampus. The format is cell-based.
Procedure: Adult (6-8 week old) male C57/B16 mice were killed by cervical dislocation, their brains immediately removed and the hippocampus, SVZ, olfactory bulb or cortex dissected. The tissue was enzymatically digested with 0.1% trypsin-EDTA (Gibco/Invitrogen, Eugene, Oreg.) for 7 minutes at 37° C., followed by a wash with 0.014% w/v trypsin inhibitor (type I-S from soybean; Sigma-Aldrich. Australia, Sydney, Australia) dissolved in Hepes-buffered minimum essential medium (HEM), which consisted of minimum essential medium (Gibco/Invitrogen) supplemented with 16 mM HEPES (Sigma-Aldrich Australia) and 100 units/ml penicillin/streptomycin (Gibco/Invitrogene). The tissue was centrifuged at 100 rcf for 7 minutes, following which the pellet was resuspended in 1 ml neurosphere growth medium, mechanically triturated until smooth, then filtered through a 40 μm cell sieve (Falcon/BD Biosciences Australia, North Ryde, Australia). The neurosphere growth medium consisted of mouse NeuroCult™ NSC Basal Medium plus mouse NeuroCult™ NSC Proliferation Supplements (StemCell Technologies, Vancouver, Canada) with 2% bovine serum albumin (Roche, Basel, Switzerland) and 2 μg/ml heparin (Sigma-Aldrich Australia). […]
The next assay concerns cortical cells. The experiment in a line: primary neurosphere culture, cortex. In kind it is cell-based, mouse. The settings on record: depolarization (potassium). Here is the method: Adult (6-8 week old) male C57/B16 mice were killed by cervical dislocation, their brains immediately removed and the hippocampus, SVZ, olfactory bulb or cortex dissected. The tissue was enzymatically digested with 0.1% trypsin-EDTA (Gibco/Invitrogen, Eugene, Oreg.) for 7 minutes at 37° C., followed by a wash with 0.014% w/v trypsin inhibitor (type I-S from soybean; Sigma-Aldrich. Australia, Sydney, Australia) dissolved in Hepes-buffered minimum essential medium (HEM), which consisted of minimum essential medium (Gibco/Invitrogen) supplemented with 16 mM HEPES (Sigma-Aldrich Australia) and 100 units/ml penicillin/streptomycin (Gibco/Invitrogene). The tissue was centrifuged at 100 rcf for 7 minutes, following which the pellet was resuspended in 1 ml neurosphere growth medium, mechanically triturated until smooth, then filtered through a 40 μm cell sieve (Falcon/BD Biosciences Australia, North Ryde, Australia). […]
The neurosphere growth medium already contained 4.18 mM KCl. […] The primary neurospheres were then counted and collected for passaging or differentiation. Results of the neurosphere counts were expressed as mean ± standard error and statistical analysis was performed using a standard t-Test (two sample assuming equal variance).

For assay [2], the system named is cells derived from the spinal cord. The assay is described as follows: activation of cells derived from the spinal cord. The settings on record: KCl. In kind it is cell-based.
Assay [3] has as its system DCX+ve / DCX-ve and PNA positive adult hippocampal cells. The experiment in a line: neurosphere assay on sorted hippocampal cells (DCX-GFP FACS, PNA binding). In kind it is cell-based, mouse. As for the experimental part: E14, P2 and adult brains were collected as described above and processed either whole or dissected into specific regions (olfactory bulb, cortex, cerebellum and subventricular zone (SVZ)). GFP+ve cells were separated by fluorescence-activated cell sorting (FACS) using a FACS Vantage cell sorter (BD Biosciences). A wild-type littermate control was used to determine background fluorescence levels. For primary neurosphere cultures the cells were plated at a density of 500 cells/well in 96-well plates (Falcon/BD Biosciences, San Jose, Calif.) with 0.2 ml complete medium per well. […] The primary neurospheres were then counted and collected for passaging or differentiation. Results of the neurosphere counts were expressed as mean + or − standard error and statistical analysis was performed using a standard t-Test (two sample assuming equal variance).
Mice in which the green fluorescent protein (GFP) is driven by the Doublecortin (DCX) promoter (DCX-GFP) were used for the separation of DCX^+ve cells. […] DCX-GFP^+ve and DCX-GFP^−ve cells were separated by fluorescence-activated cell sorting (FACS) using a FACS Vantage cell sorter (BD Biosciences) as described (see above). A wild-type littermate control was used to determine background fluorescence levels. Potassium was added to DCX^+ve and DCX^−ve cells at a final concentration of 15 mM and the number of neurospheres counted after 10 days.

The subject of assay [4] is hippocampal precursors of mice that underwent SE. The assay is described as follows: hippocampal neurosphere assay after status epilepticus in vivo. Also on record: species or system mouse. As for the experimental part: Seizures were induced in 6-8 week old C57BL/6 male mice by the administration of pilocarpine, a muscarinic cholinergic agonist. Thirty minutes prior to pilocarpine administration, the mice were injected with 2.5 mg/kg of the cholinergic antagonist scopolamine methyl nitrate (Sigma-Aldrich) to reduce peripheral cholinergic effects. They then received intraperitoneal injections of 350 mg/kg pilocarpine hydrochloride (Sigma-Aldrich). […] Seizures were stopped 2 hours after status epilepticus onset, with an intraperitoneal injection of 5 mg/kg diazepam (Patulin, Parnell Laboratories Sydney, Australia).
In addition we observed that extended depolarization, between 24 and 48 hours exposure to high level of KCl is required for the stimulation to occur in WT hippocampus confirming the need for prolonged depolarization.

The subject of assay [5] is 33 week HD hippocampal precursors. The experiment in a line: hippocampal neurosphere assay, Huntington's disease R6/1 mice. In kind it is cell-based, mouse. The conditions noted are these: 33 week old HD mice. The text has this:
R6/1 (B6CBA-TgN(HDexon1)61 Gpb/Pan) mice were originally obtained from Jackson Laboratory (Bar Harbor, Me.) and maintained by backcrossing to CBB6F1 females. For the neurosphere assays we used HD exon 1 carriers (R6/1) and aged matched wild-type littermates. Huntington's Disease is a neurodegenerative disorder that affects the striatum and cortex as well as hippocampus (Murphy et al., 2000). Previous studies have shown that older symptomatic R6/1 transgenic mice have a significant decrease in cell proliferation in the hippocampus compared to wild-type mice whereas younger pre-symptomatic R6/1 and WT mice had similar levels of proliferation (Lazic et al., 2004). […] We observed a decrease in the total number of hippocampal neuroapheres with age in WT mice that was not observed in HD mice.

Counter-ions that a name gives are not always drawn.

As to `[Cl-].[K+]` [KCl, potassium chloride], the “increase in number of neurospheres, stimulated compared to control” value in assay [1] (18 month old hippocampus, depolarizing conditions) is given as “over 12 fold”. Further, the “formation of large neurospheres” value in assay [1] (potassium-induced depolarization, hippocampus) was “stimulates the formation of increased numbers of large neurospheres”. For the same compound, the “increase in neurosphere number in cortex” value in the assay with cortical cells was “over 3 fold”. In assay [2], the “activation of spinal cord derived cells” value was “activation”. In addition, in assay [3] (15 mM potassium, 10 days), the “response of DCX-ve vs DCX+ve population to high levels of potassium” value was “it is this population, and not the DCX^+ve population, that responds”. Also, in assay [3] (adult hippocampal cells separated by peanut agglutinin binding), the “activation of PNA positive population” value was “activated”. For the same compound, the “further stimulation of precursors from SE mice by depolarizing potassium” value in assay [4] (SE at least 2 hours, sacrificed after 48 hours, potassium added in vitro) is listed as “no further stimulatory effect”. Besides, in assay [5], the “further increase of HD hippocampal precursors by potassium depolarization in vitro” value is given as “could not be further increased”.
Turning to `CC[C@@H]1C(=O)OC[C@@H]1Cc1cncn1C` [pilocarpine hydrochloride], the “activation of latent hippocampal population by induced seizures” value in assay [4] (injections of pilocarpine hydrochloride, FIG. 8A) is listed as “activation”.
